Test results published in US20080163390A1, “METHODS AND COMPOSITIONS FOR PROVIDING SA-INDEPENDENT PATHOGEN RESISTANCE IN PLANTS” (UNIVERSITY OF KENTUCKY RESEARCH FOUNDATION, priority 2007, published 2008).

What was measured:
[1] = system: Turnip Crinkle Virus (TCV); assay: TCV replication and systemic spread after 18:1 infiltration of leaves; format: in vivo, Arabidopsis
Excerpt: (A) RT-PCR analyses showing basal level expression of HRT in HRT ssi2 act1 and HRT ssi2 gly1 plants. The level of β-tubulin was used as an internal control to normalize the amount of cDNA template. The 18:1 levels are a mean of six independent replicates. (B) Systemic spread of TCV to uninoculated tissue in TCV-inoculated plants. RNA was extracted from the uninoculated tissues at 18 dpi and analyzed for the presence of the viral transcripts (TCV-U). Ethidium bromide staining of rRNA was used as a loading control. (C) Typical morphological phenotypes of mock-and TCV-inoculated HRT ssi2 act1 and HRT ssi2 gly1 plants. […] Plants were photographed at 8 dpi. (D) Effect of 18:1 infiltrations on viral replication in the inoculated leaf. Oleic acid (O, 1 mM) or water (W) was injected 24 h before or after (last two lanes) TCV inoculation and the samples were harvested 3 days post inoculation (dpi).
(§1) Pathogen inoculations. Transcripts synthesized in vitro from a cloned cDNA of TCV using T7 RNA polymerase were used for viral infections. For inoculations, the viral transcript was suspended at a concentration of 0.05 μg/μl in inoculation buffer, and the inoculation was performed. After viral inoculations, the plants were transferred to a Conviron MTR30 reach-in chamber maintained at 22° C., 65% relative humidity and 14 hour photoperiod. Inoculations with Pseudomonas syringae were conducted.
Fatty acid analysis and oleic acid infiltration. Fatty acid analysis was carried out using gas chromatorgraphy. Oleic acid (Sigma) was dissolved in water and injected into leaves using a needle-less syringe. To determine the 18:1 concentration required to elevate the leaf 18:1 content in ssi2 plants to wild-type levels, 50 μm to 10 mM were injected into ssi2 leaves followed by fatty acid profiling. A concentration of 500 μm to 1 mM was considered optimal, with similar results being obtained upon injection of either of these concentrations.
RNA extraction, RT-PCR and northern analyses. Small-scale extraction of RNA from one or two leaves was performed in the TRIzol reagent (Invitrogen, Gaihersburg, Md.) following the manufacturer's instructions. RNA quality and concentration were determined by gel electrophoresis and determination of A260. Northern blot analysis and synthesis of random primed probes for PR-1 were carried out. Reverse transcription (RT) and first strand cDNA synthesis was carried out using Superscript II (Invitrogen). Two-to-three independent RNA preparations were used for RT-PCR and each of these were analyzed at least twice by RT-PCR. The RT-PCR was carried out for 35 cycles in order to determine absolute levels of transcripts. The number of amplification cycles was reduced to 22-25 in order to evaluate and quantify any differences among transcript levels before they reached saturation. […]

18:1 content = assay: Fatty acid analysis of leaf 18:1 content (gas chromatography); format: in vivo, Arabidopsis
Excerpt: FIG. 6A-B depicts an abbreviated scheme for lipid biosynthesis and in plant oleic acid levels after 18:1 infiltrations. (A) De novo fatty acid (FA) synthesis occurs exclusively in the plastids of all plant cells and leads to the synthesis of palmitic acid (16:0)-acyl carrier protein (ACP) and oleic acid (18:1)-ACP. These FAs enter glycerolipid synthesis either via the prokaryotic pathway in the inner envelope of chloroplasts or are exported out of plastids as CoA thioesters to enter the eukaryotic glycerolipid synthesis pathway. Symbols for various components are: CoA, coenzyme A; Lyso-PA, acyl-G3P; PA, phosphatidic acid; PG, phosphatidylglycerol; MGDG, monogalactosyldiacylglycerol; DGDG, digalactosyldiacylglycerol; SL, sulfolipid; DAG, diacylglycerol; DHAP, dihydroxyacetone phosphate. (B) In planta oleic acid levels after 18:1 infiltrations. The HRT ssi2 sid2 leaves were infiltrated with water or 1 mM oleic acid and the fatty acid levels were determined 24 h post treatment from treated and untreated leaves. The 18:1 levels from the untreated wild type plant (HRT) were used as a control.
Fatty acid analysis and oleic acid infiltration. Fatty acid analysis was carried out using gas chromatorgraphy. Oleic acid (Sigma) was dissolved in water and injected into leaves using a needle-less syringe. […]

[2] = system: Turnip Crinkle Virus (TCV); assay: TCV resistance after exogenous application of SA or glycerol; format: in vivo, Arabidopsis; details: for resistance to TCV (percentage of resistant plants): inoculated 48 h post-treatment, analyzed 3 weeks post-inoculation
Excerpt: (§2) (A) PR-1 gene expression and 18:1 content in water (W)- and glycerol (G)-treated plants. Ethidium bromide staining of rRNA was used as a loading control. The 18:1 levels are a mean of six independent replicates. (B) RT-PCR analyses showing expression of HRT and SSI4 genes in water- and glycerol-treated plants shown in A. The level of β-tubulin was used as an internal control to normalize the amount of cDNA template. (C) Visible HR formation in water (W)- and glycerol (G)-treated HRT sid2, HRT pad4 and HRT act1 plants at 3 dpi. (D) Percentage TCV resistant plants obtained after exogenous application of water, SA or glycerol. Wild type (HRT or hrt), HRT sid2, HRT pad4 and HRT act1 plants were inoculated 48 h post-treatment and resistance was analyzed 3-weeks post-inoculation. The number of plants tested are indicated above each bar. Asterisk indicates 100% susceptibility. (E) Systemic spread of TCV to uninoculated tissue in TCV-inoculated plants. RNA was extracted from the uninoculated tissues at 18 dpi and analyzed for the presence of the viral transcripts (TCV-U). Ethidium bromide staining of rRNA was used as a loading control. (F) Typical morphological phenotypes of TCV-inoculated plants that were sprayed either with water (W) or glycerol (G) prior to inoculation. Plants were photographed at 18 dpi.
as §1
(§3) SA and glycerol treatments. SA and glycerol treatments were carried out by spraying 500 μM and 50 mM solutions, respectively, prepared in sterile water.

[3] = system: Turnip Crinkle Virus (TCV); details: exogenous SA prior to dark-treatment of Di-17 plants; cited from earlier work
PR-1 = PR-1 gene expression (northern analysis) in glycerol-treated plants; format: in vivo, Arabidopsis; details: exogenous glycerol
Excerpt: as §2, with “Asterisk indicates 100% susceptibility. (E) Systemic spread of TCV to uninoculated tissue in TCV-inoculated plants.” left out, “Ethidium bromide staining of rRNA was used as a loading control. (F) Typical morphological phenotypes of TCV-inoculated plants that were sprayed either with water (W) or glycerol (G) prior to inoculation. Plants were photographed at 18 dpi.” left out
(§4) RNA extraction, RT-PCR and northern analyses. […] RNA quality and concentration were determined by gel electrophoresis and determination of A260. […] Two-to-three independent RNA preparations were used for RT-PCR and each of these were analyzed at least twice by RT-PCR. […] The number of amplification cycles was reduced to 22-25 in order to evaluate and quantify any differences among transcript levels before they reached saturation.

SA levels = SA levels after glycerol application; format: in vivo, Arabidopsis; details: dependent on functional SID2 protein
Description: as §3
Exogenous application of glycerol confers resistance to TCV in an SA-independent but ACT1-dependent manner. Additional evidence supporting a role for 18:1 in regulating HRT gene expression was obtained by glycerol treatment of several genotypes. […] This is because the act1 plants are blocked in the step leading to the acylation of glycerol-3-phosphate with 18:1. […] Since the upregulation of HRT abolishes visible HR to TCV, the development of HR in various glycerol-treated plants was monitored. […] Thus, although the SA-mediated induction of HRT is dependent on PAD4, 18:1-mediated induction of HRT is independent of PAD4.

HRT = HRT transcript levels (RT-PCR) in glycerol-treated plants; format: in vivo, Arabidopsis; details: exogenous glycerol
Excerpt: as §2, with “Asterisk indicates 100% susceptibility. (E) Systemic spread of TCV to uninoculated tissue in TCV-inoculated plants.” left out, “Ethidium bromide staining of rRNA was used as a loading control. (F) Typical morphological phenotypes of TCV-inoculated plants that were sprayed either with water (W) or glycerol (G) prior to inoculation. Plants were photographed at 18 dpi.” left out
as §4

[4] = system: Turnip Crinkle Virus (TCV); assay: Visible HR formation to TCV in glycerol-treated plants; format: in vivo, Arabidopsis; details: glycerol-treated wild-type, HRT sid2 and HRT pad4 plants; 3 dpi
Excerpt: as §2
Pathogen inoculations. […]

| SMILES | TCV replication in inoculated leaf ([1]; 18:1 infiltrated 24 h after TCV inoculation) | increase in amount of TCV transcript in inoculated leaf ([1]; HRT ssi2 sid2 leaves, 18:1 infiltrated before TCV inoculation) | systemic spread of the virus ([1]; HRT ssi2 sid2 plants, 18:1 injections) | TCV replication (TCV transcript) in the inoculated leaves ([1]; wild-type Di-17 or Col-0 leaves, 18:1 (1 mM) vs water injected 24 h before TCV inoculation, 3 dpi) | 18:1 levels after exogenous application of 18:1 (18:1 content; HRT ssi2 sid2, site of infiltration vs untreated leaves, 24 h post treatment) | resistance to TCV (percentage of resistant plants) ([2]; HRT act1 plants) | resistance to TCV (percentage of resistant plants) ([2]; HRT pad4 plants) | dark-triggered susceptibility to TCV [3] | PR-1 gene expression (PR-1; HRT sid2 plants) | PR-1 gene expression (PR-1; wild-type and HRT pad4 plants) | resistance to TCV (percentage of resistant plants) ([2]; Col-0 (hrt) plants) | more TCV-resistant plants in comparison to SA pretreatment ([2]; HRT sid2 plants, glycerol vs SA pretreatment) | resistance to TCV (percentage of resistant plants) ([2]; HRT sid2 plants) | SA levels (SA levels) | HRT transcript levels (HRT; HRT act1 plants) | HRT transcript levels (HRT; wild-type, HRT sid2 and HRT pad4 plants) | 18:1 content (18:1 content; exogenous glycerol (50 mM spray), wild-type, HRT sid2 and HRT pad4 plants) | visible HR to TCV [4] |
| --- | --- | --- | --- | --- | --- | --- | --- | --- | --- | --- | --- | --- | --- | --- | --- | --- | --- | --- |
| CCCCCCCC/C=C\CCCCCCCC(=O)O [18:1, oleic acid] | remained unaffected | 6-8 fold | did not allow systemic spread of the virus | did not appear to alter TCV replication | only normalized 18:1 levels locally |  |  |  |  |  |  |  |  |  |  |  |  |  |
| O=C(O)c1ccccc1O [SA, Salicylic acid, reference compound] |  |  |  |  |  | substantial increase | only a marginal increase | prevents dark-triggered susceptibility |  |  |  |  |  |  |  |  |  |  |
| OCC(O)CO [glycerol] |  |  |  |  |  | not in HRT act1 or Col-0 plants | significantly enhanced resistance |  | failed to induce PR-1 gene expression | upregulation of PR-1 gene expression | not in HRT act1 or Col-0 plants | ~30% | enhanced resistance to TCV | induced high levels of SA | not in HRT act1 | induced HRT transcript levels | lowered 18:1 content | developed no visible HR |
